Experimental findings from patent US10520508B2, “Predictive baseline biomarkers for use of vascular disrupting agents” (BIONOMICS LIMITED, priority 2014, dated 2019) are described below.

Molecules are shown by their SMILES.

The nature of series [1]: Disruptor-1 trial: BNC105P in combination with everolimus, maximum tolerated dose. The note with it: intravenous infusion over 10 minutes, days 1 and 8 of 21 day cycle, with 10 mg oral everolimus daily. Type of series: in vivo, human (metastatic clear cell renal cell carcinoma patients). From the text:
The objective of the study was to determine the response rate of patients administered BNC105P (vascular disrupting agent) in combination with everolimus (mTOR inhibitor) in patients who had progressed from prior tyrosine kinase inhibitor therapy. In addition, the present inventors determined the improvement in 6-months progression free survival (PFS) with the addition of BNC105P to everolimus (Afinitor). A control group of patients received everolimus alone.
The medical histories of patients were obtained prior to commencement of the study.
Patients in the BNC105P in combination with everolimus study group (the “combination arm”) were administered 10 mg oral everolimus daily. On days 1 and 8 of the 21 day cycle period, the patients were administered 16 mg/m^2 BNC105P, which had been determined to be the maximum tolerated dose, by intravenous infusion over a 10 minute period (FIG. 1). Treatment was continued until disease progressed, intolerable toxicity became apparent, or until consent was withdrawn. A control group of patients were administered with everolimus alone.

In series [2] the test system is tumour endothelial cells (activated) and normal endothelial cells (quiescent). In words: Potency against activated (tumour) versus quiescent (normal) endothelial cells. As to conditions: activated vs quiescent endothelial cells. Type of series: cell-based.
For series [3], the system named is tubulin. In words: Tubulin polymerisation inhibition. Type of series: biochemical.

On to `COc1cc(C(=O)c2c(C)oc3c(OP(=O)([O-])[O-])c(OC)ccc23)cc(OC)c1OC.[Na+].[Na+]` [BNC105P, disodium [6-methoxy-2-methyl-3-(3,4,5-trimethoxybenzoyl)-1-benzofuran-7-yl] phosphate], for which the maximum tolerated dose in series [1] amounted to 16 mg/m^2.

`COc1ccc(/C=C\c2cc(OC)c(OC)c(OC)c2)cc1O` [Combretastatin A4, reference compound]: the “selectivity between activated (tumour) and quiescent (normal) endothelial cells” value in series [2] was “equally potent against quiescent and activated endothelial cells”.

On to `COc1cc(C(=O)c2c(C)oc3c(O)c(OC)ccc23)cc(OC)c1OC` [formula III, 2-methyl-7-hydroxy-3-(3,4,5-trimethoxybenzoyl)-6-methoxybenzofuran], for which the tubulin polymerisation inhibition entry in series [3] was “potent tubulin polymerisation inhibitors”. The “selectivity between activated (tumour) and quiescent (normal) endothelial cells” value in series [2] is “show selectivity towards tumor endothelial cells (activated) over normal endothelial cells (quiescent)”.
